{"source": "patent US5405760A", "about": "“Process for producing recombinant McrBC endonuclease and cleavage of methylated DNA” (New England Biolabs, Inc., priority 1992, dated 1995)", "key": {"McrBC": {"molecular_target": "T1, McrBC (Escherichia coli, UniProt P15005)", "T1 construct": "made in house; host or cells: Escherichia coli BL21(DE3)/pER273 (McrBL) and BL21(DE3)/pER276 (McrC)", "T1 sequence (P15005 1-459)": "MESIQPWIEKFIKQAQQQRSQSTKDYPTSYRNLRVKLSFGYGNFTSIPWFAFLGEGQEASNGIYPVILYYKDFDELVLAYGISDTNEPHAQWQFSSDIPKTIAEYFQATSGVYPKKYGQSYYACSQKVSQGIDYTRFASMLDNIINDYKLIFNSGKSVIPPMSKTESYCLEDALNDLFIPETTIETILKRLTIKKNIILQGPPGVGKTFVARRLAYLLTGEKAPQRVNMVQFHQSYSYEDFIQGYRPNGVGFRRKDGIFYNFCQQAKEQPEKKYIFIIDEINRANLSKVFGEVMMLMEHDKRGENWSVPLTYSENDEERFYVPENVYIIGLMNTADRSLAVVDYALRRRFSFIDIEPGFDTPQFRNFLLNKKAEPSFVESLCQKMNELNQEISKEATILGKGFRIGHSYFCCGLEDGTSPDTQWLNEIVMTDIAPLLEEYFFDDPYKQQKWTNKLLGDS", "experiment": "McrBC cleavage of pBR322.AluI with titration of nucleotides", "type": "biochemical", "details": "for inhibition of McrBC reaction: in the presence of GTP (0.5 mM), analogue 5.0 to 0.04 mM; for support of cleavage of the substrate by nucleotide: nucleotides tested at 1 mM", "description": "The optimal buffer composition for both components of McrBC tested was 10 mM Tris-Cl, 10 mM magnesium chloride, 1 mM GTP (pH 7.5 at 25° C.).\nMcrBC activity depends on the presence of GTP. […] McrBL Fraction IV and McrC Fraction Va (EXAMPLE I), were used, such that each reaction in each series contained 8 pmol McrBL, 8 pmol of McrC (combined activity on the same day of 5 units) and 0.07 pmol of pBR322.AluI in the presence of decreasing concentrations of nucleotides. Mixtures were made up without McrBL and without nucleotide; nucleotide was added to the first tube in the series; the samples were serially diluted in a manner similar to that described in EXAMPLE I and II; and reactions were begun by addition of McrBL and transfer to 37° C."}, "[1]": {"tested_on": "McrBC (chromosomal wild-type operon) (Escherichia coli K-12)", "experiment": "cell_activity", "details": "methylated by M.HaeII in vivo; in vivo restriction; abolished by McrBS plasmid"}, "[2]": {"experiment": "Properties of the McrBC cleavage reaction (pH, ratio of components)", "type": "biochemical", "details": "higher or lower ratios reduce cleavage activity", "description": "(a) pH optimum: Activity is detectable when the pH of the reaction is lowered to about 5.8.\nHigher or lower ratios reduce cleavage activity."}, "[3]": {"details": "pH 7.5, read-out: relative activity"}}, "note": "Read-outs that look alike come from different tables or passages of the source."}
{"molecule": "Nc1ncnc2c1ncn2[C@@H]1O[C@H](COP(=O)(O)OP(=O)(O)NP(=O)(O)O)[C@@H](O)[C@H]1O", "note": "[AMP-PNP]", "values": [{"measurement": "inhibition of McrBC reaction", "setting": "McrBC", "value": "did not inhibit McrBC"}, {"measurement": "inhibition of McrBC at high concentrations", "setting": "McrBC; near 10 mM", "value": "partial inhibition"}]}
{"molecule": "Nc1nc2c(ncn2[C@@H]2O[C@H](COP(=O)(O)OP(=O)(O)O)[C@@H](O)[C@H]2O)c(=O)[nH]1", "note": "[GDP]", "values": [{"measurement": "support of cleavage of the substrate by nucleotide", "setting": "McrBC", "value": "Neither GDP or GMP supported cleavage"}]}
{"molecule": "Nc1nc2c(ncn2[C@@H]2O[C@H](COP(=O)(O)OP(=O)(O)OP(=O)(O)O)[C@@H](O)[C@H]2O)c(=O)[nH]1", "note": "[GTP]", "values": [{"measurement": "activity at 620 µM", "setting": "McrBC; 0.62 mM GTP, 10 mM Tris-Cl, 10 mM magnesium chloride, pH 7.5, read-out: relative activity", "value": 100, "unit": "%"}, {"measurement": "support of the reaction by GTP alone", "setting": "McrBC; 2.5 mM GTP", "value": "supported the reaction normally"}, {"measurement": "effect of high levels of GTP on the enzyme", "setting": "McrBC; 5 mM GTP", "value": "inhibit the enzyme"}, {"measurement": "GTP concentration at which cleavage can be detected", "setting": "McrBC; lane h, lowest concentration", "value": 40, "unit": "nM"}, {"measurement": "activity at 40 µM", "setting": "McrBC; pH 7.5, 0.04 mM GTP, same buffer, read-out: relative activity", "value": "≤ 10", "unit": "%"}, {"measurement": "activity at 310 µM", "setting": "McrBC; pH 7.5, 0.31 mM GTP, same buffer, read-out: relative activity", "value": 50, "unit": "%"}]}
{"molecule": "phage lambda modified by M.HaeII", "values": [{"measurement": "activity (fold reduction in plaques)", "setting": "[1]", "value": 33}]}
{"molecule": "Nc1nc2c(ncn2[C@@H]2O[C@H](COP(=O)(O)OP(=O)(O)NP(=O)(O)O)[C@@H](O)[C@H]2O)c(=O)[nH]1", "note": "[GMP-PNP]", "values": [{"measurement": "inhibition of the GTP-supported reaction", "setting": "McrBC; 5 mM analogue, 0.5 mM GTP", "value": "partial inhibition"}, {"measurement": "activity at 1250 µM", "setting": "McrBC; pH 7.5, 0.5 mM GTP and 1.25 mM GMP-PNP, read-out: relative activity", "value": 50, "unit": "%"}, {"measurement": "activity at 5000 µM", "setting": "McrBC; pH 7.5, 0.5 mM GTP and 5 mM GMP-PNP, read-out: relative activity", "value": "< 10", "unit": "%"}]}
{"molecule": "McrB: large polypeptide product of the mcrB gene, component of McrBC", "values": [{"measurement": "Optimal ratio of McrB to McrC", "setting": "[2]", "value": "between one and ten molecules of McrB per molecule of McrC"}]}
{"molecule": "Nc1ncnc2c1ncn2[C@@H]1O[C@H](COP(=O)(O)OP(=O)(O)OP(=O)(O)O)[C@@H](O)[C@H]1O", "note": "[ATP]", "values": [{"measurement": "concentration at which inhibition of McrBC activity began", "setting": "McrBC; 0.5 mM GTP (equimolar)", "value": 0.5, "unit": "mM"}, {"measurement": "inhibition of McrBC reaction", "setting": "McrBC", "value": "inhibited the reaction"}, {"measurement": "activity at 620 µM", "setting": "McrBC; [3]", "value": 25, "unit": "%"}, {"measurement": "activity at 1250 µM", "setting": "McrBC; [3]", "value": "< 10", "unit": "%"}, {"measurement": "activity at 2500 µM", "setting": "McrBC; [3]", "value": "< 1", "unit": "%"}]}
{"molecule": "Nc1ncnc2c1ncn2[C@@H]1O[C@H](COP(=O)(O)OP(=O)(O)OP(O)(O)=S)[C@@H](O)[C@H]1O", "note": "[ATP-gamma-S]", "values": [{"measurement": "inhibition of McrBC reaction", "setting": "McrBC", "value": "did not inhibit the enzyme"}]}
{"molecule": "Nc1nc2c(ncn2[C@@H]2O[C@H](COP(=O)(O)O)[C@@H](O)[C@H]2O)c(=O)[nH]1", "note": "[GMP]", "values": [{"measurement": "support of cleavage of the substrate by nucleotide", "setting": "McrBC", "value": "Neither GDP or GMP supported cleavage"}]}
{"molecule": "Nc1nc2c(ncn2[C@@H]2O[C@H](COP(=O)(O)OP(=O)(O)OP(O)(O)=S)[C@@H](O)[C@H]2O)c(=O)[nH]1", "note": "[GTP-gamma-S]", "values": [{"measurement": "relative activity", "setting": "McrBC; 0.5 mM GTP and as little as 0.04 mM GTP-gamma-S", "value": "no activity was detectable"}, {"measurement": "inhibition of McrBC reaction", "setting": "McrBC", "value": "completely inhibit"}]}
{"molecule": "McrC: component of McrBC endonuclease, product of the mcrC gene (protein, UniProt P15006 1-348, looked up) Type IV methyl-directed …: MEQPVIPVRNIYYMLTYAWGYLQEIKQANLEAIPGNNLLDILGYVLNKGVLQLSRRGLELDYNPNTEIIPGIKGRIEFAKTIRGFHLNHGKTVSTFDMLNEDTLANRIIKSTLAILIKHEKLNSTIRDEARSLYRKLPGISTLHLTPQHFSYLNGGKNTRYYKFVISVCKFIVNNSIPGQNKGHYRFYDFERNEKEMSLLYQKFLYEFCRRELTSANTTRSYLKWDASSISDQSLNLLPRMETDITIRSSEKILIVDAKYYKSIFSRRMGTEKFHSQNLYQLMNYLWSLKPENGENIGGLLIYPHVDTAVKHRYKINGFDIGLCTVNLGQEWPCIHQELLDIFDEYLK", "values": [{"measurement": "Optimal ratio of McrC to sites", "setting": "[2]", "value": "between one and six molecules of McrC per cleavable site"}]}
